Assay results as given in patent publication US12509444B2, “Compounds and methods for CD73 modulation and indications therefor” (Plexxikon Inc., priority 2019, dated 2025).

How the values were obtained:
[1] = molecular target: T1, Human CD73 (amino acid residues 27-549) (Homo sapiens, UniProt P21589); assay: CD73 enzymatic assay (luciferase-based indirect assay, CellTiter-Glo); format: biochemical; details: 0.4 nM CD73, 150 μM AMP, 1 hour at room temperature
T1 construct: Human CD73 (amino acid residues 27-549); His tag (N); made in house; host or cells: E. coli
T1 sequence (P21589 27-549): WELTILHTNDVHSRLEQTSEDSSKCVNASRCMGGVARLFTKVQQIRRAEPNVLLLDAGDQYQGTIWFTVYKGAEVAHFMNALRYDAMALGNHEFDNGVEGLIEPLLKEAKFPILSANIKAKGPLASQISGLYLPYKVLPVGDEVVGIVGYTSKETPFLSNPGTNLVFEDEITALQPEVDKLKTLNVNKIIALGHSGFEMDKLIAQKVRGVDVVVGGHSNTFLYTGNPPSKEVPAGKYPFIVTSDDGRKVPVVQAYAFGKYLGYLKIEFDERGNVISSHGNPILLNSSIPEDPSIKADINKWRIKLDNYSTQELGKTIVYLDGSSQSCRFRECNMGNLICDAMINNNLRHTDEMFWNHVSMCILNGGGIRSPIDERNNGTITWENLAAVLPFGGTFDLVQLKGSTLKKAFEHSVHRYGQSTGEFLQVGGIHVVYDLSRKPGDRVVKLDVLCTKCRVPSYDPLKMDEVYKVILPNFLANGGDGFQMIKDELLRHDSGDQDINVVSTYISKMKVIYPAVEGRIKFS
How it was run: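 Residual AMP inhibits luciferase, so luminescence reports CD73 turnover; read with CellTiter-Glo 2.0 plus 1 μM final ATP, 30 min. Reaction used 0.4 nM N-His CD73 (27-549, E. coli), 150 μM AMP, HEPES pH 7.4 with Tween 20, 1 h at room temperature. IC50 fitted by nonlinear regression.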

human CD73 = molecular target: T2, human CD73 (Homo sapiens, UniProt P21589); assay: Inhibitor activity against CD73 in cell based assay (CD73 expressing CHO-K1 cells); details: CHO-K1 cells expressing human CD73, 150 μM AMP, 4 hours of incubation; read-out: CHO-K1 CELL VARIANT: CD73 IC50
T2 construct: expressed in transfected cells
T2 sequence (P21589 27-549): T1 sequence (P21589 27-549)
How it was run: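 Residual supernatant AMP was quantified via CellTiter-Glo luminescence (1 μM ATP added, 30 min, room temperature) after a 4 h exposure of human CD73-expressing CHO-K1 cells to 150 μM AMP plus compound, top final 10 μM, 8 points. IC50 came from nonlinear regression of percent inhibition.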

| IC50 [1] | IC50 (human CD73) | SMILES |
| --- | --- | --- |
| 0.001 to 10 µM | 0.001 to 10 µM | CC(C)NS(=O)(=O)N[C@H]1CC[C@H](NC(=O)O[C@@H]2CCN(c3cn[nH]c(=O)c3Cl)C2)CC1 [P-0311, (R)-1-(5-chloro-6-oxo-1,6-dihydropyridazin-4-yl)pyrrolidin-3-yl ((1r,4R)-4-((N-isopropylsulfamoyl)amino)cyclohexyl)carbamate] |
| 0.001 to 10 µM | 0.001 to 10 µM | CNS(=O)(=O)N[C@H]1CC[C@H](NC(=O)O[C@@H]2CCN(c3cn[nH]c(=O)c3Cl)C2)CC1 [P-0312, (R)-1-(5-chloro-6-oxo-1,6-dihydropyridazin-4-yl)pyrrolidin-3-yl ((1r,4R)-4-((N-methylsulfamoyl)amino)cyclohexyl)carbamate] |
| 0.001 to 10 µM | 0.001 to 10 µM | CC1(S(=O)(=O)N[C@H]2CC[C@H](NC(=O)O[C@@H]3CCN(c4cn[nH]c(=O)c4Cl)C3)CC2)CC1 [P-0313, (R)-1-(5-chloro-6-oxo-1,6-dihydropyridazin-4-yl)pyrrolidin-3-yl ((1r,4R)-4-((1-methylcyclopropane)-1-sulfonamido)cyclohexyl) carbamate] |
| 0.001 to 10 µM | 0.001 to 10 µM | O=C(N[C@H]1CC[C@H](NC(=O)c2ccccc2F)CC1)O[C@@H]1CCN(c2cn[nH]c(=O)c2Cl)C1 [P-0314, (R)-1-(5-chloro-6-oxo-1,6-dihydropyridazin-4-yl)pyrrolidin-3-yl ((1r,4R)-4-(2-fluorobenzamido)cyclohexyl) carbamate] |
| 0.001 to 10 µM | 0.001 to 10 µM | O=C(N[C@H]1CC[C@H](NC(=O)c2cccc(F)c2)CC1)O[C@@H]1CCN(c2cn[nH]c(=O)c2Cl)C1 [P-0315, (R)-1-(5-chloro-6-oxo-1,6-dihydropyridazin-4-yl)pyrrolidin-3-yl ((1r,4R)-4-(3-fluorobenzamido)cyclohexyl) carbamate] |
| 0.001 to 10 µM | 0.001 to 10 µM | Cc1ccccc1C(=O)N[C@H]1CC[C@H](NC(=O)O[C@@H]2CCN(c3cn[nH]c(=O)c3Cl)C2)CC1 [P-0316, (R)-1-(5-chloro-6-oxo-1,6-dihydropyridazin-4-yl)pyrrolidin-3-yl ((1r,4R)-4-(2-methylbenzamido)cyclohexyl) carbamate] |
| 0.001 to 10 µM | 0.001 to 10 µM | Cc1cccc(C(=O)N[C@H]2CC[C@H](NC(=O)O[C@@H]3CCN(c4cn[nH]c(=O)c4Cl)C3)CC2)c1 [P-0317, (R)-1-(5-chloro-6-oxo-1,6-dihydropyridazin-4-yl)pyrrolidin-3-yl ((1r,4R)-4-(3-methylbenzamido)cyclohexyl) carbamate] |
| 0.001 to 10 µM | 0.001 to 10 µM | O=C(N[C@H]1CC[C@H](NC(=O)c2ccc(C(F)(F)F)nc2)CC1)O[C@@H]1CCN(c2cn[nH]c(=O)c2Cl)C1 [P-0318, (R)-1-(5-chloro-6-oxo-1,6-dihydropyridazin-4-yl)pyrrolidin-3-yl ((1r,4R)-4-(6-(trifluoromethyl)nicotinamido)cyclohexyl)carbamate] |
| 0.001 to 10 µM | 0.001 to 10 µM | CNC(=O)N[C@H]1CC[C@H](NC(=O)O[C@@H]2CCN(c3cn[nH]c(=O)c3Cl)C2)CC1 [P-0319, (R)-1-(5-chloro-6-oxo-1,6-dihydropyridazin-4-yl)pyrrolidin-3-yl ((1r,4R)-4-(3-methylureido)cyclohexyl) carbamate] |
| 0.001 to 10 µM | 0.001 to 10 µM | CC(C)NC(=O)N[C@H]1CC[C@H](NC(=O)O[C@@H]2CCN(c3cn[nH]c(=O)c3Cl)C2)CC1 [P-0320, (R)-1-(5-chloro-6-oxo-1,6-dihydropyridazin-4-yl)pyrrolidin-3-yl ((1r,4R)-4-(3-isopropylureido)cyclohexyl) carbamate] |
| 0.001 to 10 µM | 0.001 to 10 µM | Cc1ccc(NC(=O)N[C@H]2CC[C@H](NC(=O)O[C@@H]3CCN(c4cn[nH]c(=O)c4Cl)C3)CC2)cc1 [P-0321, (R)-1-(5-chloro-6-oxo-1,6-dihydropyridazin-4-yl)pyrrolidin-3-yl ((1r,4R)-4-(3-(p-tolyl)ureido)cyclohexyl) carbamate] |
| 0.001 to 10 µM | 0.001 to 10 µM | N#Cc1ccc(NC(=O)N[C@H]2CC[C@H](NC(=O)O[C@@H]3CCN(c4cn[nH]c(=O)c4Cl)C3)CC2)cc1 [P-0322, (R)-1-(5-chloro-6-oxo-1,6-dihydropyridazin-4-yl)pyrrolidin-3-yl ((1r,4R)-4-(3-(4-cyanophenyl)ureido)cyclohexyl)carbamate] |
| 0.001 to 10 µM | 0.001 to 10 µM | O=C(Nc1ccc(F)cc1F)N[C@H]1CC[C@H](NC(=O)O[C@@H]2CCN(c3cn[nH]c(=O)c3Cl)C2)CC1 [P-0323, (R)-1-(5-chloro-6-oxo-1,6-dihydropyridazin-4-yl)pyrrolidin-3-yl ((1r,4R)-4-(3-(2,4-difluorophenyl)ureido)cyclohexyl)carbamate] |
| 0.001 to 10 µM | 0.001 to 10 µM | O=C(NCC(F)(F)F)N[C@H]1CC[C@H](NC(=O)O[C@@H]2CCN(c3cn[nH]c(=O)c3Cl)C2)CC1 [P-0324, (R)-1-(5-chloro-6-oxo-1,6-dihydropyridazin-4-yl)pyrrolidin-3-yl ((1r,4R)-4-(3-(2,2,2-trifluoroethyl)ureido)cyclohexyl)carbamate] |
| 0.001 to 10 µM | 0.001 to 10 µM | COC(=O)N[C@H]1CC[C@H](NC(=O)O[C@@H]2CCN(c3cn[nH]c(=O)c3Cl)C2)CC1 [P-0325, (R)-1-(5-chloro-6-oxo-1,6-dihydropyridazin-4-yl)pyrrolidin-3-yl methyl ((1R,4r)-cyclohexane-1,4-diyl)dicarbamate] |
| 0.001 to 10 µM | 0.001 to 10 µM | O=C(NC1CC1)N[C@H]1CC[C@@H](NC(=O)O[C@@H]2CCN(c3cn[nH]c(=O)c3Cl)C2)CC1 [P-0326, (R)-1-(5-chloro-6-oxo-1,6-dihydropyridazin-4-yl)pyrrolidin-3-yl ((1s,4S)-4-(3-cyclopropylureido)cyclohexyl) carbamate] |
| 0.001 to 10 µM | 0.001 to 10 µM | CC(C)(C)C(=O)N[C@H]1CC[C@@H](NC(=O)O[C@@H]2CCN(c3cn[nH]c(=O)c3Cl)C2)CC1 [P-0327, (R)-1-(5-chloro-6-oxo-1,6-dihydropyridazin-4-yl)pyrrolidin-3-yl ((1s,4S)-4-pivalamidocyclohexyl) carbamate] |
| 0.001 to 10 µM | 0.001 to 10 µM | O=C(NC1CCC2(CC1)CS(=O)(=O)C2)O[C@@H]1CCN(c2cn[nH]c(=O)c2Cl)C1 [P-0328, (R)-1-(5-chloro-6-oxo-1,6-dihydropyridazin-4-yl)pyrrolidin-3-yl (2,2-dioxido-2-thiaspiro[3.5]nonan-7-yl)carbamate] |
| 0.001 to 10 µM | 0.001 to 10 µM | O=C(N[C@H]1CC[C@@H](NC2CCCCC2)CC1)O[C@@H]1CCN(c2cn[nH]c(=O)c2Cl)C1 [P-0329, (R)-1-(5-chloro-6-oxo-1,6-dihydropyridazin-4-yl)pyrrolidin-3-yl ((1s,4S)-4-(cyclohexylamino)cyclohexyl) carbamate] |
| 0.001 to 10 µM | 0.001 to 10 µM | O=C(N[C@H]1CC[C@@H](Nc2cc(F)ccn2)CC1)O[C@@H]1CCN(c2cn[nH]c(=O)c2Cl)C1 [P-0330, (R)-1-(5-chloro-6-oxo-1,6-dihydropyridazin-4-yl)pyrrolidin-3-yl ((1s,4S)-4-((4-fluoropyridin-2-yl)amino)cyclohexyl)carbamate] |
| 0.001 to 10 µM | 10 to 100 µM | CC(C)(O)Cn1ncc(N2CC[C@@H](OC(=O)NC3CCC(F)(F)CC3)C2)c(Cl)c1=O [P-0331, (R)-1-(5-chloro-1-(2-hydroxy-2-methylpropyl)-6-oxo-1,6-dihydropyridazin-4-yl)pyrrolidin-3-yl (4,4-difluorocyclohexyl)carbamate] |
| 0.001 to 10 µM | 0.001 to 10 µM | O=C(NC1CCC(F)(F)CC1)O[C@@H]1CCN(c2cnn(CCCO)c(=O)c2Cl)C1 [P-0332, (R)-1-(5-chloro-1-(3-hydroxypropyl)-6-oxo-1,6-dihydropyridazin-4-yl)pyrrolidin-3-yl (4,4-difluorocyclohexyl)carbamate] |
| 0.001 to 10 µM | 0.001 to 10 µM | O=C(NC1CCN(C(=O)CO)CC1(F)F)O[C@@H]1CCN(c2cn[nH]c(=O)c2Cl)C1 (stereo partly drawn) [P-0333, (R)-1-(5-chloro-6-oxo-1,6-dihydropyridazin-4-yl)pyrrolidin-3-yl (3,3-difluoro-1-(2-hydroxyacetyl)piperidin-4-yl)carbamate] |
| 0.001 to 10 µM | 0.001 to 10 µM | CS(=O)(=O)N[C@H]1CC[C@H](NC(=O)O[C@@H]2CCN(c3cnn(CCO)c(=O)c3Cl)C2)CC1 [P-0334, (R)-1-(5-chloro-1-(2-hydroxyethyl)-6-oxo-1,6-dihydropyridazin-4-yl)pyrrolidin-3-yl ((1r,4R)-4-(methylsulfonamido)cyclohexyl)carbamate] |
